Assay results as given in paper PMC2213140 (The Journal of Experimental Medicine, 2005).

Columns and labels:
[1] = target: HLA-A2 loaded with the NY-ESO-1 157-165 analogue peptide …; experiment: SPR
[2] = target: HLA-A2 loaded with the wild-type NY-ESO-1 157-165 peptide …; experiment: SPR
[3] = system: 1G4 CTL clone with peptide-pulsed T2 target cells; experiment: Live cell video microscopy of CTL lytic granule polarization; assay type: cell-based; settings: T2 cells pulsed with 1 μM peptide
[4] = system: Jurkat cells transfected with A2K^b cDNA; experiment: In vitro killing assay with CTL from ESO 9V-immunized mice; assay type: cell-based
[5] = system: splenocytes from ESO 9V- or ESO 9C-immunized A2K^b mice; experiment: Ex-vivo IFN-γ ELISPOT assay; assay type: cell-based, mouse; settings: reducing agent TCEP, unpublished data
[6] = system: 1G4 CTL clone with peptide-pulsed T2 target cells; assay type: cell-based; settings: 30 min at 37°C

Row | Kd [1] [µM] | Kd [2] [µM] | Substance | rate of lytic granule polarization [3] | time from initial contact to granule polarization at the synapse ([3]; 1 h at 37°C, single CTL followed) [min] | time without polarization of lytic granules toward either target ([3]; second CTL (red arrow)) [min] | lysis of peptide-loaded target cells by CTL from ESO 9V-immunized mice [4] | effect of TCEP on IFN-γ responses to ESO 9C peptide [5] | granule polarization [6]
1 | 5 | 13.3 | soluble 1G4 TCR (NY-ESO-1 157-165-specific TCR from the 1G4 CTL clone) | – | – | – | – | – | –
2 | – | – | SLLMWITQC [ESO 9C] | lytic granule polarization is slow | ≤ 17 | > 22 | capable of lysing target cells loaded with wild-type ESO 9C peptide | responses were enhanced in the presence of the reducing agent TCEP | polarization was poor
